In patent publication EP4752142A1, “5-HT2A RECEPTOR AGONIST, AND PREPARATION METHOD THEREFOR AND USE THEREOF” (Innovstone Therapeutics Limited, priority 2023, dated 2025):
Like-named read-outs stand apart in the source and are kept apart here.

Key:
5-HT2A receptor [1] = biological target: T1, 5-HT2A receptor (Homo sapiens, UniProt P28223); experiment: 5-HT2AR calcium flux activation assay; format: cell-based; design: expressed in transfected cells; host or cells: HEK293; settings: for Emax: Max Dose 100000 nM
T1 sequence (P28223 whole entry): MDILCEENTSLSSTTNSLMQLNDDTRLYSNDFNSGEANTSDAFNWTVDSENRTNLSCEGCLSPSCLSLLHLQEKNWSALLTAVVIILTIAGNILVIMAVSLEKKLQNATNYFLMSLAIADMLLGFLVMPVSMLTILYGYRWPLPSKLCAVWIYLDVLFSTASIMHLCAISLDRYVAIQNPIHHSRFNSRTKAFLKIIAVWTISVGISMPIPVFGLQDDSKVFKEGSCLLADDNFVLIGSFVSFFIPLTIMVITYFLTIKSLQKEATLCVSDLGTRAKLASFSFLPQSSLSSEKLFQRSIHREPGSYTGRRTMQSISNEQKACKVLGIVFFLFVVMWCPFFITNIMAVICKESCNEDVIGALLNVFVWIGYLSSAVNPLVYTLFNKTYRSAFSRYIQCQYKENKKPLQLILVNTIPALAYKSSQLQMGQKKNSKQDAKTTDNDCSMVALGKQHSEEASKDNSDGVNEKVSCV
Experimental: • 1) For cultured cells (HEK293 cells stably expressing human 5-HT2A receptor), they were first washed twice with pre-warmed DPBS, then an appropriate amount of trypsin was added for digestion at 37°C for 1 minute; an appropriate amount of the culture medium was then added to stop digestion, and 1 mL was taken for counting and vitality determination using Vi-CELL™. • 2) Cells were centrifuged at 1000 rpm for 5 minutes. • 3) The supernatant was gently discarded, being careful not to disturb the cell pellet. • 4) Cells were diluted with the culture medium to 1×10^6 cells/mL (20,000 cells/20 µL) and seeded into 384-well poly-lysine coated cell plates. They were cultured at 37°C under 5% CO2 for 16-20 hours.
• 1) Preparation of 250 mM Probenecid solution: According to the kit instructions, 77 mg of probenecid was added to 1 mL of FLIPR buffer salt solution. Prepared fresh for immediate use. • 2) Preparation of Fluo-4 Direct™ (2×, 8 µM) loading buffer: According to the kit instructions, the required amount of Fluo-4 Direct™ was thawed in advance. 10 mL of FLIPR buffer salt solution and 0.2 mL of 250 mM Probenecid solution were added to each vial. It was vortexed in the dark for >5 minutes. Prepared fresh for immediate use.
• 1) Preparation of control and test compound plates: Compounds were gradient diluted to 10 points using Echo, and 750 nL was transferred to the corresponding compound plate. • 2) 30 µL of assay buffer salt solution was added to the corresponding compound plate, which was then centrifuged at 1000 rpm for 1 minute; • 3) The cell plate prepared the day before was taken from the incubator, and 20 µL of 2× Fluo-4 Direct™ buffer was added to each well, making a total volume of 40 µL. • 4) The plate was incubated in a 5% CO2, 37°C incubator for 50 minutes, then left at room temperature for 10 minutes. • 5) The compound plate, the cell plate, and pipette tips were placed into the instrument; • 6) The FLIPR instrument software was run according to the set program, adding 10 µL of the specified concentrations of test compounds and control compounds to the cell plate, and fluorescence signals were read. After reading, data was exported using the "Max-Min", "Read 1 to 90" method in the software. • 7) Data analysis: Agonist Activation% = (RLU−DMSO)/(HC−DMSO)*100 [formula] • RLU: Relative Light Units, read values 1 to 90; • HC: Average fluorescence signal of the highest concentration point of the agonist; • DMSO: Average fluorescence signal of the DMSO group; • 8) Data was fitted using Prism 5.0.
For agonist: EC50 was fitted using "log(agonist) vs. response -- Variable slope". Table 2: 5-HT2AR Calcium Flux Activation Assay

5-HT2A receptor [2] = biological target: T1, 5-HT2A receptor; experiment: 5-HT2A receptor isotope competition affinity assay; format: binding
Experimental: A radiolabeled ligand (agonist or antagonist) incubated with receptor protein could form a receptor-ligand complex. An added test compound could compete with the isotopically labeled ligand for the receptor binding, eventually forming a relative steady-state equilibrium. The affinity of the test compound for the receptor was indirectly evaluated by measuring the dissociation of the isotopically labeled ligand from the receptor.
A 100x serial gradient dilution of compounds was prepared in DMSO, starting from 1 mM with 4-fold serial dilutions, resulting in 10 concentration points. Using a pipettor, 1 µL of each gradient concentration of the test compound (final concentration starting at 10 µM, 4-fold serial dilutions, 10 concentration points) was transferred to a 96-well assay plate, to each well of which 49 µL of 5-HT2A receptor protein (102 µg/mL, prepared in an assay buffer: 50 mM Tris-HCl, pH 7.4) had been added in advance (final concentration 5 µg/well). This was followed by the addition of 50 µL of isotopically labeled [^3H]-Ketanserin (2 nM, 2× final concentration, prepared in the assay buffer). The plate was sealed and incubated on a shaker at room temperature for 1 hour. The reaction mixture was filtered through a Unifilter-96 GF/C filter plate pre-treated with 0.3% PEI. The filter plate was washed with a precooled (4°C) assay buffer and then dried in an incubator at 50°C. A scintillation liquid was added, and the plate was read using a MicroBeta2 instrument. The percentage inhibition was calculated using the equation: %Inhibition=(CountHigh Signal Control-CountSample)/(CountHigh Signal Control-CountLow Signal Control)*100. A four-parameter logistic fit was used to calculate the IC50 value. High Signal Control: No compound group (the same volume of DMSO substituted). Low Signal Control: Ketanserin group (non-isotopically labeled, 2× final concentration). Table 1: Results of 5-HT2A receptor isotope competition affinity assay, Ki Values

[3] = HEK293 cells stably expressing human 5-HT2A receptor, FLIPR, Fluo-4, read-out: EC50
[4] = HEK293 cells stably expressing human 5-HT2A receptor
[5] = competition with [3H]-Ketanserin, 1 hour, room temperature, read-out: 5-HT2A receptor/Ki

| Structure (SMILES) | Ki (5-HT2A receptor [2]; [5]) [nM] | further results |
| --- | --- | --- |
| c1ccc2c([C@H]3CCN(CCCc4ncon4)C3)c[nH]c2c1 [Compound 171, (R)-3-(1-[3-(1,2,4-oxadiazol-3-yl)propyl]pyrrolidin-3-yl)-1H-indole] |  | EC50 (5-HT2A receptor [1]; [3]): 63.5 nM; Emax (5-HT2A receptor [1]; [4]): 40.2% |
| Cc1nc(C)n(CCCN2CCC(c3c[nH]c4ccccc34)C2)n1 (stereo not drawn) [Compound 122, 3-(1-(3-(3,5-dimethyl-1H-1,2,4-triazol-1-yl)propyl)pyrrolidin-3-yl)-1H-indole] | < 100 | EC50 (5-HT2A receptor [1]; [3]): 24.8 nM; Emax (5-HT2A receptor [1]; [4]): 38.6% |
| Cn1cc(CCCN2CCC(c3c[nH]c4cccc(O)c34)C2)cn1 (stereo not drawn) [Compound 60] | < 100 | EC50 (5-HT2A receptor [1]; [3]): 33.3 nM; Emax (5-HT2A receptor [1]; [4]): 29.9% |
| c1ccc2c(C3CCN(CCc4nnc5ccccn45)C3)c[nH]c2c1 (stereo not drawn) [Compound 142, 3-(1-(2-((1,2,4)triazolo(4,3-a)pyridin-3-yl)ethyl)pyrrolidin-3-yl)-1H-indole] |  | Ki (5-HT2A receptor [2]): < 100 nM; EC50 (5-HT2A receptor [1]): 45.9 nM; Emax (5-HT2A receptor [1]; [4]): 41.9% |
| Cc1nn(CCCN2CCC(c3c[nH]c4cccc(O)c34)C2)nc1C (racemic) [Compound 127] |  | EC50 (5-HT2A receptor [1]; [3]): 3.94 nM; Emax (5-HT2A receptor [1]; [4]): 53.4% |
| Cc1cc(CCN2CCC(c3c[nH]c4cccc(F)c34)CC2)n[nH]1 [reference compound] |  | EC50 (5-HT2A receptor [1]; [3]): > 100000 nM; Emax (5-HT2A receptor [1]; [4]): 0.9% |
| Cc1cnn(CCCN2CCC(c3c[nH]c4ccccc34)C2)n1 (stereo not drawn) [Compound 126] |  | EC50 (5-HT2A receptor [1]; [3]): 27.7 nM; Emax (5-HT2A receptor [1]; [4]): 49.7% |
| COc1ccccc1CCCN1CCOC(c2n[nH]c3ccccc23)C1 (stereo not drawn) [Compound 37, 3-(4-(3-(2-methoxyphenyl)propyl)morpholin-2-yl)-1H-indazole] |  | Ki (5-HT2A receptor [2]): < 100 nM |
| COc1ccccc1CCCN1CCC(c2c[nH]c3ncccc23)C1 (stereo not drawn) [Compound 22] | < 100 |  |
| Fc1ccc2c(C3CCN(CCCc4nncn4C4CC4)C3)c[nH]c2c1 (stereo not drawn) [Compound 99] | < 100 |  |
| Fc1ccc2c(C3CCN(CCCc4nncn4C4CCC4)C3)c[nH]c2c1 (stereo not drawn) [Compound 92] | < 100 |  |
| COc1ccccc1CCCN1CCOC(c2c[nH]c3ccccc23)C1 (stereo not drawn) [Compound 29, 2-(1H-indol-3-yl)-4-(3-(2-methoxyphenyl)propyl)morpholine] |  | Ki (5-HT2A receptor [2]): < 100 nM |
| COc1ncncc1CCCN1CCC(c2c[nH]c3ccccc23)C1 (stereo not drawn) [Compound 132, 3-(1-(3-(4-methoxypyrimidin-5-yl)propyl)pyrrolidin-3-yl)-1H-indole] | < 100 |  |
| Oc1cccc2[nH]cc(C3CCN(CCCc4ncon4)C3)c12 (stereo not drawn) [Compound 173, 3-(1-(3-(1,2,4-oxadiazol-3-yl)propyl)pyrrolidin-3-yl)-1H-indol-4-ol] | < 100 |  |
| COc1ccccc1CCCN1CCC(n2ccc3cc(F)ccc32)C1 (stereo not drawn) [Compound 7] | < 100 |  |
| CC(C)c1cnn(CCCN2CCC(c3c[nH]c4cccc(O)c34)C2)n1 (stereo not drawn) [Compound 128] |  | EC50 (5-HT2A receptor [1]; [3]): 7.09 nM; Emax (5-HT2A receptor [1]; [4]): 63.1% |
| CC(C)n1cnnc1CCCN1CCC(c2c[nH]c3ccccc23)C1 (stereo not drawn) [Compound 79] | < 100 |  |
| CC(C)n1cnnc1CCCN1CCC(c2c[nH]c3cc(F)ccc23)C1 (stereo not drawn) [Compound 84] | < 100 |  |
| COc1ccccc1CCCN1CCC(c2n[nH]c3ccccc23)C1 (stereo not drawn) [Compound 23] | < 100 |  |
| CC(C)c1nc(CCCN2CCC(c3n[nH]c4ccccc34)C2)no1 (stereo not drawn) [Compound 175, 3-(3-(-3-(1H-indazol-3-yl)pyrrolidin-1-yl)propyl)-5-isopropyl-1,2,4-oxadiazole] | < 100 |  |

| Structure (SMILES) | Ki (5-HT2A receptor [2]; [5]) [nM] | further results |
| --- | --- | --- |
| Oc1cccc2[nH]cc(C3CCN(CCc4coc5c(F)cccc45)C3)c12 (stereo not drawn) [Compound 135] | < 100 |  |
| COc1ccccc1CCCN1CC(c2c[nH]c3ccccc23)C1 [Compound 11, 3-(1-(3-(2-methoxyphenyl)propyl)azetidin-3-yl)-1H-indole] | < 100 |  |
| COc1ccccc1CCCN1CCC(c2c[nH]c3ccccc23)C1 (stereo not drawn) [Compound 5, 3-(1-(3-(2-methoxyphenyl)propyl)pyrrolidin-3-yl)-1H-indole] | < 100 |  |
| c1ccc2c(C3CCN(CCCn4nccn4)CC3)c[nH]c2c1 [reference compound] |  | EC50 (5-HT2A receptor [1]; [3]): > 100000 nM; Emax (5-HT2A receptor [1]; [4]): 25.5% |
| Cc1nn(CCCN2CC[C@@H](c3c[nH]c4cccc(O)c34)C2)nc1C [Compound 186, (S)-3-(1-(3-(4,5-dimethyl-2H-1,2,3-triazol-2-yl)propyl)pyrrolidin-3-yl)-1H-indol-4-ol] | < 100 |  |
| c1ccc2c(c1)CC(CN1CCC(c3c[nH]c4ccncc34)C1)CO2 (stereo not drawn) [Compound 141] | < 100 |  |
| Cn1cc(CCCN2CCC(c3n[nH]c4ccccc34)C2)cn1 (stereo not drawn) [Compound 69, 3-(1-(3-(1-methyl-1H-pyrazol-4-yl)propyl)pyrrolidin-3-yl)-1H-indazole] |  | Ki (5-HT2A receptor [2]): < 100 nM |
| c1ccc2c(C3CCN(CCCc4ncsn4)C3)c[nH]c2c1 (stereo not drawn) [Compound 55, 3-(1-(3-(1,2,4-thiadiazol-3-yl)propyl)pyrrolidin-3-yl)-1H-indole] | < 100 |  |
| c1ccc2c(C3CCN(CCCc4nncs4)C3)c[nH]c2c1 (stereo not drawn) [Compound 50, 3-(1-(3-(1,3,4-thiadiazol-2-yl)propyl)pyrrolidin-3-yl)-1H-indole] |  | Ki (5-HT2A receptor [2]): < 100 nM |
| c1ccc2c(C3CCN(CC4CCn5c(nnc5C5CC5)C4)C3)c[nH]c2c1 (stereo not drawn) [Compound 145, 3-(1-((3-cyclopropyl-SH,6H,7H,8H-[1,2,4]triazolo[4,3-a]pyridine-7-yl)methyl)pyrrolidin-3-yl)-1H-indole] | < 100 |  |
| c1ccc2c(C3CCN(CCCn4nccn4)C3)n[nH]c2c1 (stereo not drawn) [Compound 189, 3-(1-(3-(2H-1,2,3-triazol-2-yl)propyl)pyrrolidin-3-yl)-1H-indazole] | < 100 |  |
| Fc1ccc2c(C3CCN(CCCc4nncn4CC(F)(F)F)C3)c[nH]c2c1 (stereo not drawn) [Compound 83] | < 100 |  |
| C1=C(c2c[nH]c3ccccc23)CN(CCCn2nccn2)CC1 [Compound 179, 3-(1-(3-(2H-1,2,3-triazol-2-yl)propyl)-1,2,5,6-tetrahydropyridin-3-yl)-1H-indole] | < 100 |  |
| COc1ccccc1CCCN1CCOC(c2c[nH]c3ccncc23)C1 (stereo not drawn) [Compound 34, 4-(3-(2-methoxyphenyl)propyl)-2-(1H-pyrrolo[3,2-c]pyridin-3-yl)morpholine] |  | Ki (5-HT2A receptor [2]): < 100 nM |
| Cc1nnc(CCCN2CCC(n3ccc4cc(F)ccc43)C2)n1C(C)C (stereo not drawn) [Compound 103] | < 100 |  |
| COc1ccccc1CCCN1C2CCC1C(c1c[nH]c3ccccc13)C2 (stereo not drawn) [Compound 16, 3-(7-(3-(2-methoxyphenyl)propyl)-7-azabicyclo[2.2.1]heptan-2-yl)-1H-indole] | < 100 |  |
| c1ccc2c([C@H]3CCN(CCCn4nccn4)C3)c[nH]c2c1 [Compound 177, (R)-3-(1-(3-(2H-1,2,3-triazol-2-yl)propyl)pyrrolidin-3-yl)-1H-indole] | < 100 |  |
| c1ccc2c(C3CCN(CCc4nnc5sccn45)C3)c[nH]c2c1 (stereo not drawn) [Compound 143, 3-(2-(3-(1H-indol-3-yl)pyrrolidin-1-yl)ethyl)thiazolo[2,3-c][1,2,4]triazole] | < 100 |  |
| COc1ccccc1CCCN1CCCC(c2c[nH]c3cccc(O)c23)C1 (stereo not drawn) [Compound 4, 3-(1-(3-(2-methoxyphenyl)propyl)piperidin-3-yl)-1H-indol-4-ol] | < 100 |  |
